Source: ChEMBL document CHEMBL5604061, “ASAP - WNV NS2B-NS3 protease fluorescence dose response” (2024)
Several values for one entry are separate records, joined by “and”; a condition that tells them apart may be missing. Equal entries are not always repeated.

target: T1, NS3 (West Nile virus, UniProt K4FQI5); experiment: Functional biochemical assay to identify treatments for viral infectious disease that targets West Nile NS2B-NS3 protease. Utilizing a direct enzyme activity measurement method, reading the fluorescence intensity is used to characterize the relative potency of inhibitors as IC50.; design: species or system NY-99
T1 sequence (K4FQI5 whole entry): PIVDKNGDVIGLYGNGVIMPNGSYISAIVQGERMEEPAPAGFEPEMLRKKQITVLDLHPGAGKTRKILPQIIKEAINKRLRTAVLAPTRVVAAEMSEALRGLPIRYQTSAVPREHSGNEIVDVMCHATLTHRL

Row | Structure (SMILES) | IC50
1 | COC(=O)[C@H](C)n1cc2c(C(=O)Nc3ccc4c(c3)CNC4)cc(Cl)cc2n1 | 9.12 µM
2 | CCNC(=O)Nc1cc(Cl)cc(C(=O)Nc2cccc(CN)c2)c1 | 21.6 µM
3 | CS(=O)(=O)NC(=O)c1cc(Cl)ccc1NS(=O)(=O)c1ccc(Oc2ccccc2Cl)cc1 | 74.5 µM
4 | COC[C@]1(c2nc3c(C(=O)Nc4ccc5c(c4)CNC5)cc(F)cc3[nH]2)CCOC1 | 20.5 µM
5 | O=C(Nc1cc(Cl)cc(C(=O)Nc2ccc3c(c2)CCNC3)c1)OCc1ccccc1 | 49.5 µM
6 | O=C(Nc1ccc2c(c1)CNC2)c1cc(F)cc2[nH]c(-c3cccc(F)c3)nc12 | 7.29 µM
7 | O=C(Nc1ccc2c(c1)CNC2)c1cc(Br)cc2[nH]c([C@H]3CCOC3)nc12 | 92.3 µM
8 | O=C(Nc1cc(Cl)cc(C(=O)Nc2ccc3c(c2)CNC3)c1)OCc1ccccc1 | 17.7 µM and 48.4 µM and 25.2 µM
9 | N=C(N)NCc1ccc(NC(=O)Oc2ccccc2)cc1 | > 100 µM
10 | O=C(Nc1cc2c(cc1C1CC1)CNC2)c1cc(F)cc2[nH]ncc12 | 0.832 µM
11 | O=C(Nc1cc2c(c(-c3c[nH]c(=O)c(F)c3)c1)CNC2)c1cc(F)cc2[nH]ncc12 | 0.668 µM
12 | C=CC[C@H](Nc1cc(Cl)cc(NC(=O)OCc2ccccc2)c1)c1cccc(-c2nn[nH]n2)c1 | 14.4 µM
13 | O=C1Cc2c(cccc2C(=O)Nc2ccc3c(c2)CNC3)N1 | 6.16 µM
14 | NCc1cccc(NC(=O)[C@@H](NC(=O)OCc2ccccc2)c2ccc(OCc3ccccc3)cc2)c1 | 6.97 µM
15 | NCc1cccc(NC(=O)[C@H](NC(=O)OCc2ccccc2)c2ccc(Br)c(Cl)c2)c1 | 6.57 µM
16 | NCCc1csc2cc(C(=O)Nc3ccc4c(c3)CNC4)ccc12 | 2.09 µM
17 | Cc1cc(CN)cc(NC(=O)c2cc(Cl)cc3[nH]ncc23)c1 | 22.6 µM
18 | Cn1ncc2c(C(=O)Nc3ccc4c(c3)CNC4)cc(Cl)cc21 | 1.88 µM
19 | O=C(Nc1ccc2c(c1)CNC2)c1cccc2[nH]ccc12 | 8.63 µM
20 | COc1ccc(S(=O)(=O)n2nc(OC(=O)c3cccc(-c4ccccc4Cl)c3)cc2N)cc1 | 1.09 µM
21 | NCc1cccc(NC(=O)c2cc(Cl)cc3[nH]ncc23)c1 | 35.8 µM
22 | O=C(Nc1ccc2c(c1)CNC2)c1cc(Cl)cc2c1cnn2C1CCC1 | 1.7 µM
23 | Cn1c(=O)[nH]c2c(C(=O)Nc3ccc4c(c3)CNC4)cc(Br)cc21 | 14.4 µM
24 | O=C(NCC(F)F)[C@H](Nc1ccc2c(c1)CNC2)c1cc(Cl)cc2c1CCC2 | 0.42 µM
25 | Cc1ccc(NC(=O)c2cc(Cl)cc(NC(=O)OCc3ccccc3)c2)cc1CN | 60.7 µM

Row | Structure (SMILES) | IC50
26 | O=C(Nc1ccc2c(c1)CNC2)c1cc(F)cc2[nH]cnc12 | 13.5 µM
27 | O=C1CCc2c(cccc2C(=O)Nc2ccc3c(c2)CNC3)N1 | 10.8 µM
28 | CS(=O)(=O)c1cc2c(cc1NC(=O)c1cc(F)cc3[nH]ncc13)CNC2 | 2.51 µM
29 | O=C(NCc1ccc(F)cc1)[C@H](Nc1ccc2c(c1)CNC2)c1cc(Cl)cc2[nH]ncc12 | 1.08 µM
30 | O=C(Nc1ccc2c(c1)CNCCO2)c1cc(Cl)cc2[nH]ncc12 | 19.6 µM
31 | NCc1ccc(-c2ncc(OCC3CCNCC3)nc2-c2ccc(-c3ccoc3)cc2)cc1 | 98.4 µM
32 | COCc1cc(Cl)cc(C(=O)Nc2ccc3c(c2)CNC3)c1 | 73.2 µM
33 | CC(C)c1nn(C)cc1-c1cc(F)cc(C(=O)Nc2ccc3c(c2)CNC3)c1 | 11.9 µM
34 | O=C(Nc1ccc2c(c1)CNC2)c1cc(F)c2[nH]ccc2c1 | 20.1 µM
35 | NCc1cccc(NC(=O)[C@H]2[C@H]3CCCCC[C@H]3[C@H]2NC(=O)OCc2ccccc2)c1 | 47.1 µM
36 | O=C(Nc1ccc2c(c1)CNC2)c1cc(F)cc2[nH]c(-c3ccccc3F)nc12 | 2.39 µM
37 | COC(=O)c1cc2c(cc1NC(=O)c1cc(F)cc3[nH]ncc13)CNC2 | 1 µM
38 | N#C[C@H](Nc1ccc2c(c1)CNC2)c1cc(Cl)cc(C2CC2)c1 | 59 µM
39 | CNC(=O)[C@H](Nc1cc(Cl)cc(NC(=O)OCc2ccccc2)c1)c1cccc(-c2nn[nH]n2)c1 | > 99.5 µM
40 | CC(C)c1nnc(-c2nc3c(C(=O)Nc4ccc5c(c4)CNC5)cc(F)cc3[nH]2)s1 | 11.8 µM
41 | NCCc1ccc(NC(=O)c2cc(Cl)cc(NC(=O)OCc3ccccc3)c2)cc1 | 16 µM
42 | Cc1cccc(-c2nc3c(C(=O)Nc4ccc5c(c4)CNC5)cc(F)cc3[nH]2)c1 | 26 µM
43 | Cc1cnccc1-c1cc(NC(=O)c2cc(F)cc3[nH]ncc23)cc2c1CNC2 | 2.77 µM
44 | Cc1[nH]c2ccccc2c1CN1CCC(c2c[nH]c3ncccc23)CC1 | > 99.5 µM
45 | COCn1ncc2c(C(=O)Nc3ccc4c(c3)CNC4)cc(Cl)cc21 | 3.73 µM
46 | O=C(Nc1ccc2c(c1)CNC2)c1cc(F)cc(-c2cccnc2)c1 | 2.68 µM
47 | Cc1ccccc1-c1nc2c(C(=O)Nc3ccc4c(c3)CNC4)cc(F)cc2[nH]1 | 8.51 µM
48 | N#C[C@H](Nc1cccc(-c2nn[nH]n2)c1)c1cc(Cl)cc(NC(=O)OCc2ccccc2)c1 | 28.7 µM
49 | O=C(O)c1cc2c(cc1NS(=O)(=O)c1ccc(Oc3ccccc3Cl)cc1)CCC2 | 16.4 µM
50 | COc1cccc(-c2nc3c(C(=O)Nc4ccc5c(c4)CNC5)cc(F)cc3[nH]2)c1 | 6.6 µM

Row | Structure (SMILES) | IC50
51 | Cc1ccc2cc(Cl)cc(C(=O)Nc3ccc4c(c3)CNC4)c2n1 | > 99.5 µM
52 | CC(C)NC(=O)[C@H](Nc1ccc2c(c1)CNC2)c1cc(Cl)cc2[nH]c(-c3ccccc3)nc12 | 0.28 µM and 0.286 µM and 0.152 µM and 0.255 µM
53 | Cn1cc2cc(Cl)cc(C(=O)Nc3ccc4c(c3)CNC4)c2n1 | > 24.9 µM
54 | CC(C)n1cc2c(C(=O)Nc3ccc4c(c3)CNC4)cc(Cl)cc2n1 | 1.73 µM
55 | C=CC[C@H]1NCc2cc(NC(=O)c3cc(F)cc4[nH]ncc34)ccc21 | 4.14 µM
56 | O=C(O)c1ccc(-c2cc(NC(=O)c3cc(F)cc4[nH]ncc34)cc3c2CNC3)cc1 | 1.15 µM
57 | C=CC[C@H]1NCc2cc(N[C@H](C(=O)NCC(F)F)c3cc(Cl)cc(C4CC4)c3)ccc21 | 0.289 µM
58 | CC(C)NC(=O)[C@H](Nc1ccc2c(c1)CNC2)c1cc(Cl)cc2[nH]ncc12 | 0.386 µM and 0.292 µM and 0.336 µM
59 | O=C(NCCC1CC1)[C@H](Nc1ccc2c(c1)CNC2)c1cc(Cl)cc(C2CC2)c1 | 0.698 µM
60 | O=C(Nc1ccc2c(c1)CNC2)c1cc(Cl)cc2[nH]ncc12 | 3.09 µM
61 | CN1C(=O)CC[C@H]1c1nc2c(C(=O)Nc3ccc4c(c3)CNC4)cc(F)cc2[nH]1 | 14.1 µM
62 | CNC(=O)[C@H](Nc1cc(CN)cc(-c2nn[nH]n2)c1)c1cc(Cl)cc(C2CC2)c1 | 1 µM
63 | Cc1cc(-c2ccc([C@@H](NC(=O)OCc3ccccc3)C(=O)Nc3cccc(CN)c3)cc2)cs1 | 3.42 µM
64 | C=CC[C@H]1NCc2cc(N[C@H](C(=O)NC(C)C)c3cc(Cl)cc4[nH]ncc34)ccc21 | 0.886 µM
65 | O=C(Nc1ccc2c(c1)CNC2)c1cc(F)cc2[nH]c(CCc3cccnc3)nc12 | 3.31 µM
66 | CCCCNC(=O)[C@H](Nc1ccc2c(c1)CNC2)c1cc(Cl)cc(C2CC2)c1 | 0.295 µM
67 | O=C(Nc1ccc2c(c1)B(O)OC2)c1cccc(OCc2c(Cl)cccc2Cl)c1 | > 99.5 µM
68 | N=C(N)Nc1ccc(OC(=O)Nc2ccccc2)cc1 | > 100 µM
69 | O=C(Nc1ccc2c(c1)CNC2)c1cccc2[nH]ncc12 | 4.33 µM
70 | CCc1cc(C(=O)Nc2cccc(-n3nn[nH]c3=O)c2)sc1-c1ccc(Cl)cc1 | 20.1 µM
71 | Cc1cc(C(=O)Nc2ccc3c(c2)CNC3)cc2nc[nH]c12 | 12.5 µM
72 | O=C(Nc1ccc2c(c1)CNC2)c1cc(Cl)cc2[nH]c(-c3ncnn3C3CC3)nc12 | 87.2 µM
73 | O=C(Nc1ccc2c(c1)CNC2)c1cc(Cl)cc2c1cnn2C[C@H]1CCCO1 | 6.08 µM
74 | O=C(Nc1ccc2c(c1)CNC2)c1cc(Cl)cc2nn(-c3ccccc3)nc12 | 21.5 µM
75 | O=C(Nc1ccc2c(c1)CNC2)c1cc(Cl)cc2[nH]c(-c3cnccc3O)nc12 | > 99.5 µM

Row | Structure (SMILES) | IC50
76 | N#Cc1cccc(-c2nc3c(C(=O)Nc4ccc5c(c4)CNC5)cc(F)cc3[nH]2)c1 | 3.76 µM
77 | NCc1cc(/C=C/C(=O)O)cc(NC(=O)c2cc(Cl)cc(NC(=O)OCc3ccccc3)c2)c1 | 85 µM
78 | O=C(Nc1ccc2c(c1)CNC2)c1cccc2nc(O)ccc12 | 6.71 µM
79 | CC(=O)Nc1cccc(C(=O)Nc2ccc3c(c2)CNC3)c1 | 30.6 µM
80 | O=C(Nc1ccc2c(c1)CNC2)c1cccc2ccncc12 | 11.4 µM
81 | O=C(Nc1ccc2c(c1)CNC2)c1cc(F)cc(-c2cnc(C3CC3)s2)c1 | 1.99 µM
82 | CNC(=O)c1cccc(C(=O)Nc2ccc3c(c2)CNC3)c1 | 36.8 µM
83 | CC(C)c1nc2c(C(=O)Nc3ccc4c(c3)CNC4)cc(Br)cc2[nH]1 | > 99.5 µM
84 | O=C(Nc1ccc2c(c1)CNC2)c1cc(Cl)cc(N2CCCC2)c1 | 42.8 µM
85 | O=C(Nc1ccc2c(c1)CNC2)c1cc(Cl)cc2cc[nH]c12 | 16.3 µM
86 | O=C(Nc1ccc2c(c1)CNC2)c1cc(F)cc2nn(-c3ccccn3)nc12 | 7.11 µM
87 | O=C(Nc1ccc2c(c1)CNC2)c1cc(Cl)cc2cn[nH]c12 | 7.83 µM
88 | O=C(NCCCF)[C@H](Nc1ccc2c(c1)CNC2)c1cc(Cl)cc(C2CC2)c1 | 0.249 µM
89 | Cc1ccc(S(=O)(=O)CNC(=O)[C@H](Nc2ccc3c(c2)CNC3)c2cc(Cl)cc3[nH]ncc23)cc1 | 11.7 µM
90 | Cn1nccc1-c1cc(NC(=O)c2cc(F)cc3[nH]ncc23)cc2c1CNC2 | 1.43 µM
91 | CCCCCC(=O)N[C@H](C(=O)Nc1ccc2[nH]ncc2c1)c1ccc(OCc2ccccc2)cc1 | > 99.5 µM
92 | C=CC[C@H]1NCc2cc(NC(=O)c3cccc4c3CC(=O)N4)ccc21 | 8.03 µM
93 | Cc1c(C(=O)Nc2cc([C@H]3CCOC3)ccn2)cc(C2CC2)n1C | 2.68 µM
94 | O=C(Nc1ccc2c(c1)CNC2)c1cc(F)cc(/C=C/c2ccccc2)c1 | 2.91 µM
95 | O=C(Nc1ccc2c(c1)CNC2)c1cc(F)cc(C=C2CCS(=O)(=O)CC2)c1 | 14.5 µM
96 | O=C(Nc1ccc2c(c1)CNC2)c1cc(Cl)cc2[nH]c(-c3ccnn3C3CC3)nc12 | 18.6 µM
97 | O=C(Nc1ccc2c(c1)CNC2)c1cc(Br)cc2[nH]c(=O)[nH]c12 | 4.67 µM
98 | N#Cc1cc(C(=O)Nc2ccc3c(c2)CNC3)cc(C(F)(F)F)c1 | 98.1 µM
99 | O=C(NCC(F)F)[C@H](Nc1ccc2c(c1)CNC2)c1cc(F)cc2[nH]ccc12 | 0.768 µM
100 | O=C(Nc1ccc2c(c1)CNC2)c1cc(Cl)cc2[nH]c(-c3ccc(F)cc3O)nc12 | > 99.5 µM
